According to ChEMBL document CHEMBL5214990, “Novel Aryl Alkamidazole Derivatives as Multifunctional Antifungal Inhibitors: Design, Synthesis, and Biological Evaluation” (J Med Chem, 2022):
≈ marks a conversion by molar mass, not a printed value. Each block holds one compound with its values, some of them ahead of it. Calls of active or inactive are those of the source. The calls are words filed in the database; no cut-off is given here.

Experiments:
Candida albicans [1] = experiment: Antifungal activity against fluconazole-resistant Candida albicans 632 assessed as inhibition of fungal growth measured after 72 hrs by CLSI based liquid medium dilution method; format: functional
Candida albicans [2] = experiment: Antifungal activity against fluconazole-resistant Candida albicans 901 assessed as inhibition of fungal growth measured after 72 hrs by CLSI based liquid medium dilution method; format: functional
Candida albicans [3] = experiment: Antifungal activity against Candida albicans ATCC SC5314 assessed as inhibition of fungal growth measured after 72 hrs by CLSI based liquid medium dilution method; format: functional
Aspergillus fumigatus = experiment: Antifungal activity against Aspergillus fumigatus KM8001 assessed as inhibition of fungal growth measured after 72 hrs by CLSI based liquid medium dilution method; format: functional
Candida tropicalis = experiment: Antifungal activity against Candida tropicalis ATCC 1369 assessed as inhibition of fungal growth measured after 72 hrs by CLSI based liquid medium dilution method; format: functional
Candida albicans [4] = experiment: Antifungal activity against fluconazole-resistant Candida albicans CaR assessed as inhibition of fungal growth measured after 72 hrs by CLSI based liquid medium dilution method; format: functional
Candida albicans [5] = experiment: Antifungal activity against fluconazole-resistant Candida albicans 17# assessed as inhibition of fungal growth measured after 72 hrs by CLSI based liquid medium dilution method; format: functional
Cryptococcus neoformans = experiment: Antifungal activity against Cryptococcus neoformans assessed as inhibition of fungal growth measured after 72 hrs by CLSI based liquid medium dilution method; format: functional
Pichia kudriavzevii = experiment: Antifungal activity against Candida krusei ATCC 6258 assessed as inhibition of fungal growth measured after 72 hrs by CLSI based liquid medium dilution method; format: functional
Candida albicans [6] = experiment: Antifungal activity against fluconazole-resistant Candida albicans 904 assessed as inhibition of fungal growth measured after 72 hrs by CLSI based liquid medium dilution method; format: functional
Candida albicans [7] = experiment: Antifungal activity against Candida albicans assessed as inhibition of fungal cell proliferation by measuring decrease in fungal cell density measured after 24 hrs; format: functional, organism-based
[8] = target: T1, Lanosterol 14-alpha demethylase (Candida albicans (strain SC5314 / ATCC MYA-2876) (Yeast), UniProt P10613); experiment: Inhibition of CYP51 in Candida albicans ATCC SC5314 assessed as unknown sterol content at 4 ug/ml measured after 48 hrs by GC-MS analysis; design: scale not given: the % may be the effect or the level left; details: at 4 µg/mL
T1 sequence (P10613 whole entry): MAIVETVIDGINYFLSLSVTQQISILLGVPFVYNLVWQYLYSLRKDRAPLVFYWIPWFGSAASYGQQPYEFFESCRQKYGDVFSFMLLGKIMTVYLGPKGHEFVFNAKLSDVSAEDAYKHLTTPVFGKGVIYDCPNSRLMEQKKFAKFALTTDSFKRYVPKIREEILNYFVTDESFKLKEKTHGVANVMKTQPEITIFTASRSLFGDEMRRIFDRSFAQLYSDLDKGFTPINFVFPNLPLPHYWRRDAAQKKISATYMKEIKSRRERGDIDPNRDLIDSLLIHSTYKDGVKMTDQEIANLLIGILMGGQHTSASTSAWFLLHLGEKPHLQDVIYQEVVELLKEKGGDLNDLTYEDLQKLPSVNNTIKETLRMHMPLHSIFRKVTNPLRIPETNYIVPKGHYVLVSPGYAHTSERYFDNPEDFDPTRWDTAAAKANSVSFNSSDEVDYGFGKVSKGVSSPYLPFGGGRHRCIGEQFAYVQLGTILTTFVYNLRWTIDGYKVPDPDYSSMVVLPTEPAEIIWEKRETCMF

[9] = target: T1, Lanosterol 14-alpha demethylase; experiment: Inhibition of CYP51 in Candida albicans ATCC SC5314 assessed as reduction in substrate consumption using lanosterol as substrate preincubated for 30 mins followed by substrate addition and measured after 60 mins by HPLC analysis
Candida albicans [10] = experiment: Induction of mitochondrial membrane depolarization in Candida albicans assessed as fungal cells with intact mitochondria measured after 24 hrs by JC-1 staining based flow cytometry (reference value: 95.9%); format: functional
[11] = Increase in intracellular ROS level in Cryptococcus neoformans assessed as fold increase in fluorescence intensity measured after 12 hrs by fluorescence microscopic analysis relative to control; format: functional
[12] = Increase in intracellular ROS level in Candida albicans assessed as fold increase in fluorescence intensity measured after 12 hrs by fluorescence microscopic analysis relative to control; format: functional
Candida albicans [13] = experiment: Induction of mitochondrial membrane depolarization in Candida albicans assessed as fungal cells with depolarized mitochondria measured after 24 hrs by JC-1 staining based flow cytometry (reference value: 3.22%); format: functional
[14] = target: T2, Prostaglandin G/H synthase 2 (Homo sapiens, UniProt P35354); experiment: Inhibition of COX2 (unknown origin) assessed as reduction in PGF2alpha content using arachidonic acid as substrate preincubated for 10 mins followed by substrate addition and measured after 2 mins by enzyme immunoassay
T2 sequence (P35354 whole entry): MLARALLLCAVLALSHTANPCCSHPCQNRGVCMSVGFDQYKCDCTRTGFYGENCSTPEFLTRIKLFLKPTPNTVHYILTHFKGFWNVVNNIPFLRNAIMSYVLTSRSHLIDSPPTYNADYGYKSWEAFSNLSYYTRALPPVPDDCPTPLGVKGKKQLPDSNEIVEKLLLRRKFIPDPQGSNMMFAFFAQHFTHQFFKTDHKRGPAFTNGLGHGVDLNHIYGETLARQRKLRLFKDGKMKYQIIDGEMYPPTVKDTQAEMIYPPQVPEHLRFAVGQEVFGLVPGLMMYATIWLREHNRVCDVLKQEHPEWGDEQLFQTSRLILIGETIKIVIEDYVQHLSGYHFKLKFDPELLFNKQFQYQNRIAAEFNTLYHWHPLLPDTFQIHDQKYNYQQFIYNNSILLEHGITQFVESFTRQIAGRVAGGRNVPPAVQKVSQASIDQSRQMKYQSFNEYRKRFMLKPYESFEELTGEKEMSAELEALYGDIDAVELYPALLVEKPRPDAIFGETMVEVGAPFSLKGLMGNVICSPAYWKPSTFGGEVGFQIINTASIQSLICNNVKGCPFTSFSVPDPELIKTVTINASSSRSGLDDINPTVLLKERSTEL

[15] = target: T1, Lanosterol 14-alpha demethylase; experiment: Inhibition of CYP51 in Candida albicans ATCC SC5314 assessed as lanosterol content at 4 ug/ml measured after 48 hrs by GC-MS analysis; design: scale not given: the % may be the effect or the level left; details: at 4 µg/mL
[16] = target: T1, Lanosterol 14-alpha demethylase; experiment: Inhibition of CYP51 in Candida albicans ATCC SC5314 assessed as eburicol content at 4 ug/ml measured after 48 hrs by GC-MS analysis (reference value: 1.84%); design: scale not given: the % may be the effect or the level left; details: at 4 µg/mL
Candida albicans [17] = experiment: Induction of apoptosis in Candida albicans assessed as necrotic cells measured after 24 hrs by Annexin V-FITC/PI staining based flow cytometry (reference value: 3.37%); format: functional
Candida albicans [18] = experiment: Induction of apoptosis in Candida albicans assessed as late apoptotic cells measured after 24 hrs by Annexin V-FITC/PI staining based flow cytometry (reference value: 0.44%); format: functional
Candida albicans [19] = experiment: Induction of apoptosis in Candida albicans assessed as viable cells measured after 24 hrs by Annexin V-FITC/PI staining based flow cytometry (reference value: 95.7%); format: functional
Candida albicans [20] = experiment: Induction of apoptosis in Candida albicans assessed as early apoptotic cells measured after 24 hrs by Annexin V-FITC/PI staining based flow cytometry (reference value: 0.46%); format: functional
[21] = target: T1, Lanosterol 14-alpha demethylase; experiment: Inhibition of CYP51 in Candida albicans ATCC SC5314 assessed as ergosterol content at 4 ug/ml measured after 48 hrs by GC-MS analysis (reference value: 95.61%); design: scale not given: the % may be the effect or the level left; details: at 4 µg/mL
[22] = Drug uptake in Candida albicans ATCC SC5314 assessed as increase in red and green fluorescence intensity measured after 10 hrs by PI/Hoechst […] staining based fluorescence microscopy; format: ADME

Compound: CC(=O)N1CCN(c2ccc(OCC3COC(Cn4ccnc4)(c4ccc(Cl)cc4Cl)O3)cc2)CC1 (stereo unspecified) [KETOCONAZOLE]
- MIC50 (Candida albicans [1]): > 8 µg/mL
- MIC50 (Candida albicans [2]): 4 µg/mL (≈ 7.53 µM)
- MIC50 (Candida albicans [3]): 1 µg/mL (≈ 1.88 µM)
- MIC50 (Aspergillus fumigatus): > 8 µg/mL
- MIC50 (Candida tropicalis): 0.5 µg/mL (≈ 0.941 µM)
- MIC50 (Candida albicans [4]): 4 µg/mL (≈ 7.53 µM)
- MIC50 (Candida albicans [5]): 4 µg/mL (≈ 7.53 µM)
- MIC50 (Cryptococcus neoformans): 1 µg/mL (≈ 1.88 µM)
- MIC50 (Pichia kudriavzevii): 0.5 µg/mL (≈ 0.941 µM)
- MIC50 (Candida albicans [6]): > 8 µg/mL

- MIC50 (Candida albicans [3]): 1 µg/mL (≈ 2.22 µM)
- MIC50 (Aspergillus fumigatus): 2 µg/mL (≈ 4.44 µM)
- MIC50 (Candida tropicalis): 1 µg/mL (≈ 2.22 µM)
- MIC50 (Cryptococcus neoformans): 0.5 µg/mL (≈ 1.11 µM)
- MIC50 (Pichia kudriavzevii): 0.25 µg/mL (≈ 0.554 µM)
Compound: C[C@H](C(=O)OC(Cn1cnnn1)c1ccc(Cl)cc1)c1ccc(-c2ccccc2)c(F)c1 (stereo partly specified)

- MIC50 (Candida albicans [3]): 0.5 µg/mL (≈ 1.15 µM)
- MIC50 (Aspergillus fumigatus): 4 µg/mL (≈ 9.21 µM)
- MIC50 (Candida tropicalis): 0.25 µg/mL (≈ 0.575 µM)
- MIC50 (Cryptococcus neoformans): 1 µg/mL (≈ 2.3 µM)
- MIC50 (Pichia kudriavzevii): 0.5 µg/mL (≈ 1.15 µM)
Compound: C[C@H](C(=O)OC(Cn1cnnn1)c1ccc(F)cc1)c1ccc(-c2ccccc2)c(F)c1 (stereo partly specified)

- MIC50 (Candida albicans [3]): 0.5 µg/mL (≈ 0.996 µM)
- MIC50 (Aspergillus fumigatus): 4 µg/mL (≈ 7.97 µM)
- MIC50 (Candida tropicalis): 1 µg/mL (≈ 1.99 µM)
- MIC50 (Cryptococcus neoformans): 0.5 µg/mL (≈ 0.996 µM)
- MIC50 (Pichia kudriavzevii): 0.5 µg/mL (≈ 0.996 µM)
Compound: C[C@H](C(=O)N(C)CC(O)(Cn1ccnc1)c1ccc(Cl)cc1)c1cccc(C(=O)c2ccccc2)c1 (stereo partly specified)

Compound: C[C@H](C(=O)OC(Cn1ccnc1)c1ccc(F)cc1)c1ccc(-c2ccccc2)c(F)c1 (stereo partly specified)
- MIC50 (Candida albicans [1]): 4 µg/mL (≈ 9.25 µM)
- Activity (Candida albicans [7]): Active
- MIC50 (Candida albicans [2]): 2 µg/mL (≈ 4.62 µM)
- MIC50 (Candida albicans [3]): 0.25 µg/mL (≈ 0.578 µM)
- Activity [8]: 5.06%
- MIC50 (Aspergillus fumigatus): 2 µg/mL (≈ 4.62 µM)
- IC50 [9]: 350 nM
- MIC50 (Candida tropicalis): 0.25 µg/mL (≈ 0.578 µM)
- MIC50 (Candida albicans [4]): 2 µg/mL (≈ 4.62 µM)
- Activity (Candida albicans [10]): 46.6%
- MIC50 (Candida albicans [5]): 4 µg/mL (≈ 9.25 µM)
- fold change (FC) [11]: 4
- MIC50 (Cryptococcus neoformans): 0.5 µg/mL (≈ 1.16 µM)
- fold change (FC) [12]: 4
- Activity (Candida albicans [13]): 52.9%
- IC50 [14]: 3760 nM
- MIC50 (Pichia kudriavzevii): 0.125 µg/mL (≈ 0.289 µM)
- Activity [15]: 33.52%
- MIC50 (Candida albicans [6]): 2 µg/mL (≈ 4.62 µM)
- Activity [16]: 39.58%
- Activity (Candida albicans [17]): 32.7%
- Activity (Candida albicans [18]): 1.06%
- Activity (Candida albicans [19]): 66.2%
- Activity (Candida albicans [20]): 0.086%
- Activity [21]: 21.84%
- Drug uptake [22]: Active

- MIC50 (Candida albicans [3]): 1 µg/mL (≈ 2.29 µM)
- MIC50 (Aspergillus fumigatus): > 8 µg/mL
- MIC50 (Candida tropicalis): 2 µg/mL (≈ 4.58 µM)
- MIC50 (Cryptococcus neoformans): 2 µg/mL (≈ 4.58 µM)
- MIC50 (Pichia kudriavzevii): 0.5 µg/mL (≈ 1.15 µM)
Compound: C[C@H](C(=O)OC(Cn1cnnn1)c1ccc(F)cc1)c1ccc(CC2CCCC2=O)cc1 (stereo partly specified)

- MIC50 (Candida albicans [3]): 0.25 µg/mL (≈ 0.475 µM)
- MIC50 (Aspergillus fumigatus): 4 µg/mL (≈ 7.6 µM)
- MIC50 (Candida tropicalis): 0.25 µg/mL (≈ 0.475 µM)
- MIC50 (Cryptococcus neoformans): 0.5 µg/mL (≈ 0.95 µM)
- MIC50 (Pichia kudriavzevii): 0.5 µg/mL (≈ 0.95 µM)
Compound: C[C@H](C(=O)N(C)CC(O)(Cn1ccnc1)c1ccc(Cl)cc1Cl)c1ccc(-c2ccccc2)c(F)c1 (stereo partly specified)

- MIC50 (Candida albicans [3]): 0.25 µg/mL (≈ 0.624 µM)
- MIC50 (Aspergillus fumigatus): 4 µg/mL (≈ 9.99 µM)
- MIC50 (Candida tropicalis): 0.25 µg/mL (≈ 0.624 µM)
- MIC50 (Cryptococcus neoformans): 1 µg/mL (≈ 2.5 µM)
- MIC50 (Pichia kudriavzevii): 0.25 µg/mL (≈ 0.624 µM)
Compound: COc1ccc2cc([C@H](C)C(=O)N[C@H](Cn3cncn3)c3ccccc3)ccc2c1

- MIC50 (Candida albicans [3]): 0.5 µg/mL (≈ 1.03 µM)
- MIC50 (Aspergillus fumigatus): > 8 µg/mL
- MIC50 (Candida tropicalis): 0.5 µg/mL (≈ 1.03 µM)
- MIC50 (Cryptococcus neoformans): 0.5 µg/mL (≈ 1.03 µM)
- MIC50 (Pichia kudriavzevii): 1 µg/mL (≈ 2.06 µM)
Compound: C[C@H](C(=O)N(C)CC(O)(Cn1ccnc1)c1ccc(F)cc1)c1cccc(C(=O)c2ccccc2)c1 (stereo partly specified)
